Test results from ChEMBL document CHEMBL3885881, “DrugMatrix”.

Organism: Rattus norvegicus
Assay: DrugMatrix - Regimen: Daily Repeat
Assay type: toxicity, organism-based, Sprague-Dawley
Set-up: regimen Daily Repeat, gender Male, age 6-8 weeks
Details: in vivo, po, route oral GAVAGE, […]; for ABSOLUTE BASOPHIL / ABSOLUTE EOSINOPHIL / ABSOLUTE LYMPHOCYTE / ABSOLUTE MONOCYTE / ABSOLUTE SEGMENTED NEUTROPHIL / BASOPHIL / EOSINOPHIL / ERYTHROCYTE COUNT / HEMATOCRIT / HEMOGLOBIN / LEUKOCYTE COUNT / LYMPHOCYTE / MEAN CORPUSCULAR HEMOGLOBIN / MEAN CORPUSCULAR HEMOGLOBIN CONCENTRATION / MEAN CORPUSCULAR VOLUME / MONOCYTE / NEUTROPHIL / NUCLEATED RED BLOOD CELLS / PLATELET COUNT: tissue Blood; for ALANINE AMINOTRANSFERASE / ALBUMIN / ALKALINE PHOSPHATASE / ASPARTATE AMINOTRANSFERASE / BLOOD UREA NITROGEN / CARBON DIOXIDE / CHLORIDE / CHOLESTEROL / CREATINE PHOSPHOKINASE / CREATININE / GLUCOSE / LACTATE DEHYDROGENASE / LIPASE / PHOSPHORUS / POTASSIUM / SODIUM / TOTAL BILIRUBIN / TOTAL PROTEIN / URIC ACID: tissue Plasma
[1] = 0 mg/kg, 72 h, dose level Control, time 3 day
[2] = 0 mg/kg, 120 h, dose level Control, time 5 day
[3] = 1 mg/kg, 72 h, dose level Low, time 3 day

SMILES: C[C@H]1O[C@@H](O[C@H]2[C@@H](O)C[C@H](O[C@H]3[C@@H](O)C[C@H](O[C@H]4CC[C@@]5(C)[C@H](CC[C@@H]6[C@@H]5CC[C@]5(C)[C@@H](C7=CC(=O)OC7)CC[C@]65O)C4)O[C@@H]3C)O[C@@H]2C)C[C@H](O)[C@@H]1O [DIGITOXIN]
- ABSOLUTE BASOPHIL [1]: 0 CELLS/uL
- ABSOLUTE EOSINOPHIL [1]: 13.67 CELLS/uL
- ABSOLUTE LYMPHOCYTE [1]: 10069.5 CELLS/uL
- ABSOLUTE MONOCYTE [1]: 50 CELLS/uL
- ABSOLUTE SEGMENTED NEUTROPHIL [1]: 516.83 CELLS/uL
- BASOPHIL [1]: 0%
- EOSINOPHIL [1]: 0.17%
- ERYTHROCYTE COUNT [1]: 5.44 x10E6/uL
- HEMATOCRIT [1]: 33.88%
- HEMOGLOBIN [1]: 13.23 G/DL
- LEUKOCYTE COUNT [1]: 10.65 x10E3/uL
- LYMPHOCYTE [1]: 94.67%
- MEAN CORPUSCULAR HEMOGLOBIN [1]: 24.37 pg
- MEAN CORPUSCULAR HEMOGLOBIN CONCENTRATION [1]: 39.05 G/DL
- MEAN CORPUSCULAR VOLUME [1]: 62.38 fL
- MONOCYTE [1]: 0.67%
- NEUTROPHIL [1]: 4.5%
- NUCLEATED RED BLOOD CELLS [1]: 0.33 /100WBC
- PLATELET COUNT [1]: 414.5 x10E3/uL
- ALANINE AMINOTRANSFERASE [1]: 72 u/L
- ALBUMIN [1]: 3.75 G/DL
- ALKALINE PHOSPHATASE [1]: 375 u/L
- ASPARTATE AMINOTRANSFERASE [1]: 87.5 u/L
- BLOOD UREA NITROGEN [1]: 14 mg/dL
- CARBON DIOXIDE [1]: 27.5 mmol/L
- CHLORIDE [1]: 95.83 MEQ/L
- CHOLESTEROL [1]: 68.5 mg/dL
- CREATINE PHOSPHOKINASE [1]: 284.33 u/L
- CREATININE [1]: 0.16 mg/dL
- GLUCOSE [1]: 156.67 mg/dL
- LACTATE DEHYDROGENASE [1]: 101.83 u/L
- LIPASE [1]: 9.67 u/L
- PHOSPHORUS [1]: 10.33 mg/dL
- POTASSIUM [1]: 5.22 MEQ/L
- SODIUM [1]: 137.67 MEQ/L
- TOTAL BILIRUBIN [1]: 0.13 mg/dL
- TOTAL PROTEIN [1]: 5.43 G/DL
- URIC ACID [1]: 0.8 mg/dL
- ABSOLUTE BASOPHIL [2]: 0 CELLS/uL
- ABSOLUTE EOSINOPHIL [2]: 20.67 CELLS/uL
- ABSOLUTE LYMPHOCYTE [2]: 11518.33 CELLS/uL
- ABSOLUTE MONOCYTE [2]: 47 CELLS/uL
- ABSOLUTE SEGMENTED NEUTROPHIL [2]: 614 CELLS/uL
- BASOPHIL [2]: 0%
- EOSINOPHIL [2]: 0.17%
- ERYTHROCYTE COUNT [2]: 5.61 x10E6/uL
- HEMATOCRIT [2]: 34.25%
- HEMOGLOBIN [2]: 13.38 G/DL
- LEUKOCYTE COUNT [2]: 12.2 x10E3/uL
- LYMPHOCYTE [2]: 94.33%
- MEAN CORPUSCULAR HEMOGLOBIN [2]: 23.83 pg
- MEAN CORPUSCULAR HEMOGLOBIN CONCENTRATION [2]: 39.08 G/DL
- MEAN CORPUSCULAR VOLUME [2]: 61.03 fL
- MONOCYTE [2]: 0.33%
- NEUTROPHIL [2]: 5.17%
- NUCLEATED RED BLOOD CELLS [2]: 0 /100WBC
- PLATELET COUNT [2]: 941.83 x10E3/uL
- ALANINE AMINOTRANSFERASE [2]: 68.83 u/L
- ALBUMIN [2]: 4.12 G/DL
- ALKALINE PHOSPHATASE [2]: 492.67 u/L
- ASPARTATE AMINOTRANSFERASE [2]: 83.33 u/L
- BLOOD UREA NITROGEN [2]: 14 mg/dL
- CARBON DIOXIDE [2]: 37 mmol/L
- CHLORIDE [2]: 98.67 MEQ/L
- CHOLESTEROL [2]: 56.5 mg/dL
- CREATINE PHOSPHOKINASE [2]: 167.33 u/L
- CREATININE [2]: 0.17 mg/dL
- GLUCOSE [2]: 157.5 mg/dL
- LACTATE DEHYDROGENASE [2]: 104.83 u/L
- LIPASE [2]: 10 u/L
- PHOSPHORUS [2]: 10.43 mg/dL
- POTASSIUM [2]: 5.46 MEQ/L
- SODIUM [2]: 143.87 MEQ/L
- TOTAL BILIRUBIN [2]: 0.17 mg/dL
- TOTAL PROTEIN [2]: 5.72 G/DL
- URIC ACID [2]: 0.85 mg/dL
- ABSOLUTE BASOPHIL [3]: 0 CELLS/uL
- ABSOLUTE EOSINOPHIL [3]: 39.67 CELLS/uL
- ABSOLUTE LYMPHOCYTE [3]: 11912.33 CELLS/uL
- ABSOLUTE MONOCYTE [3]: 73.33 CELLS/uL
- ABSOLUTE SEGMENTED NEUTROPHIL [3]: 641.33 CELLS/uL
- BASOPHIL [3]: 0%
- EOSINOPHIL [3]: 0.33%
- ERYTHROCYTE COUNT [3]: 5.7 x10E6/uL
- HEMATOCRIT [3]: 35.6%
- HEMOGLOBIN [3]: 13.77 G/DL
- LEUKOCYTE COUNT [3]: 12.67 x10E3/uL
- LYMPHOCYTE [3]: 93.67%
- MEAN CORPUSCULAR HEMOGLOBIN [3]: 24.13 pg
- MEAN CORPUSCULAR HEMOGLOBIN CONCENTRATION [3]: 38.7 G/DL
- MEAN CORPUSCULAR VOLUME [3]: 62.33 fL
- MONOCYTE [3]: 0.67%
- NEUTROPHIL [3]: 5.33%
- NUCLEATED RED BLOOD CELLS [3]: 0 /100WBC
- PLATELET COUNT [3]: 661.33 x10E3/uL
- ALANINE AMINOTRANSFERASE [3]: 72.67 u/L
- ALBUMIN [3]: 3.77 G/DL
- ALKALINE PHOSPHATASE [3]: 495.33 u/L
- ASPARTATE AMINOTRANSFERASE [3]: 95.67 u/L
- BLOOD UREA NITROGEN [3]: 12 mg/dL
- CARBON DIOXIDE [3]: 25.67 mmol/L
- CHLORIDE [3]: 96.33 MEQ/L
- CHOLESTEROL [3]: 70.67 mg/dL
- CREATINE PHOSPHOKINASE [3]: 398.33 u/L
- CREATININE [3]: 0.17 mg/dL
- GLUCOSE [3]: 146.67 mg/dL
- LACTATE DEHYDROGENASE [3]: 188.67 u/L
- LIPASE [3]: 11 u/L
- PHOSPHORUS [3]: 10.1 mg/dL
- POTASSIUM [3]: 5.78 MEQ/L
- SODIUM [3]: 137.9 MEQ/L
- TOTAL BILIRUBIN [3]: 0.13 mg/dL
- TOTAL PROTEIN [3]: 5.57 G/DL
